Assay results: article PMC6792352, “Limited Chemical Structural Diversity Found to Modulate Thyroid Hormone Receptor in the Tox21 Chemical Library” (Environmental Health Perspectives, 2019)
Structures can show the parent of a compound that is named as a salt.

assay: in vitro; conditions: rat, gh3-tre-luc cells, AC50 (uM) modified / 1000

SMILES | CC50 at 24 h
CC[N+]1(C)CCCC1 [1-Ethyl-1-methylpyrrolidinium hexafluorophosphate] | > 90 µM
CCCCCCCCCOC(=O)c1ccccc1C(=O)OCCCCCCCCC [Dinonyl phthalate] | > 90 µM
CCCCN(CCCC)CC(O)c1cc(Cl)cc2c1-c1ccc(Cl)cc1/C2=C/c1ccc(Cl)cc1 (stereo not drawn) [Lumefantrine] | 38.5 µM
C[C@H]1CC[C@]2(NC1)O[C@H]1C[C@H]3[C@@H]4CC[C@H]5C[C@@H](O)CC[C@]5(C)[C@H]4CC[C@]3(C)[C@H]1[C@@H]2C [Tomatidine hydrochloride] | 47 µM
C[C@H]1[C@H](NC(=O)/C(=N\OC(C)(C)C(=O)O)c2csc(N)n2)C(=O)N1S(=O)(=O)O [Aztreonam] | > 20 µM
COC(=O)CCCCC(=O)O [Methyl hexanedioate] | > 90 µM
CN(C)C=O [N,N-Dimethylformamide] | > 90 µM
CC(Oc1cccc(Cl)c1)C(=O)O (stereo not drawn) [Cloprop] | > 90 µM
O=c1ccc2cc(O[C@@H]3O[C@H](CO)[C@@H](O)[C@H](O)[C@H]3O)c(O)cc2o1 [Esculin] | > 20 µM
COc1ccccc1N1CCN(CC(O)COc2cccc3ccccc23)CC1 (stereo not drawn) [Naftopidil] | 23.4 µM
COc1cc(OC)cc(OC)c1 [1,3,5-Trimethoxybenzene] | > 50 µM
CCCC(c1cc(C(C)(C)C)c(O)cc1C)c1cc(C(C)(C)C)c(O)cc1C [4,4'-Butane-1,1-diylbis(2-tert-butyl-5-methylphenol)] | 3.97 µM
CCOC(=O)[C@H](CCc1ccccc1)N[C@@H](C)C(=O)N1[C@H](C(=O)O)C[C@H]2CCCC[C@@H]21 [Trandolapril] | > 50 µM
COC(=O)c1cc(Cl)cc(Cl)c1 [Methyl 3,5-dichlorobenzoate] | > 90 µM
OC(CCl)CCl [1,3-Dichloro-2-propanol] | > 90 µM
COc1cccc(-c2ccc(/C=C\CN3CCCCCC3)cc2Cl)c1 [SR125047] | 17.7 µM
CCc1ccc(CC)cc1 [1,4-Diethylbenzene] | > 90 µM
CC1(C)[C@H](C(=O)O[C@H](C#N)c2cccc(Oc3ccccc3)c2)[C@@H]1C=C(Br)Br [Deltamethrin] | > 100 µM
CC(C)(O)C(=O)c1ccc(OCCO)cc1 [2-Hydroxy-1-[4-(2-hydroxyethoxy)phenyl]-2-methylpropan-1-one] | > 90 µM
NS(=O)(=O)c1cc2c(cc1Cl)NCNS2(=O)=O [Hydrochlorothiazide] | > 90 µM
CCCCCC1=CCCC1=O [2-Pentyl-2-cyclopenten-1-one] | > 90 µM
O=C(O)CS [Thioglycolic acid] | > 90 µM
N#CCCl [Chloroacetonitrile] | > 100 µM
CC(=O)N/N=C/c1ccc([N+](=O)[O-])o1 [Nihydrazone] | 17.4 µM
CCN(Cc1cccnc1)C(=O)c1cccc(Cl)c1[C@]1(C)C(=O)N(Cc2ccc(OC)cc2OC)c2ccc(Cl)cc21 [SSR126768] | 9.39 µM
CCc1cccc(C)c1 [3-Ethyltoluene] | > 90 µM

SMILES | CC50 at 24 h
COC(C)CCO (stereo not drawn) [3-Methoxybutan-1-ol] | > 90 µM
COc1ccc(C[C@H](C)NC[C@@H](O)c2ccc(O)c(NC=O)c2)cc1 [Formoterol hemifumarate dihydrate] | > 50 µM
C#C[C@]1(O)CC[C@H]2[C@@H]3CCC4=CC(=O)CCC4=C3C=C[C@@]21CC [Gestrinone] | > 50 µM
CNCC(=O)c1ccc(O)c(O)c1 [Adrenone] | > 50 µM
COc1ccc(N=Nc2cc(C)c(N=Nc3ccc(S(=O)(=O)O)cc3)cc2OC)cc1 [Acid Orange 156] | 64.4 µM
CC(CCO)CCc1ccccc1 (stereo not drawn) [3-Methyl-5-phenylpentan-1-ol] | > 90 µM
CC(C)(C)CC(C)(C)c1ccc(Nc2ccc(C(C)(C)CC(C)(C)C)cc2)cc1 [4,4'-bis(1,1,3,3-Tetramethylbutyl)diphenylamine] | > 5 µM
COC(Cc1ccccc1)OC [(2,2-Dimethoxyethyl)benzene] | > 90 µM
Cc1ccc([N+](=O)[O-])cc1N [2-Methyl-5-nitroaniline] | > 90 µM
CCCCC(CC)(CO)CO [2-Butyl-2-ethyl-1,3-propanediol] | > 90 µM
CCOC(=O)C1OC1c1ccccc1 (stereo not drawn) [Ethyl 3-phenylglycidate] | > 90 µM
CO[C@H]1C[C@@H]2CC[C@@H](C)[C@@](O)(O2)C(=O)C(=O)N2CCCC[C@H]2C(=O)O[C@H]([C@H](C)C[C@@H]2CC[C@@H](OCCO)[C@H](OC)C2)CC(=O)[C@H](C)/C=C(\C)[C@@H](O)[C@@H](OC)C(=O)[C@H](C)C[C@H](C)/C=C/C=C/C=C/1C [Everolimus] | 0.00998 µM
Brc1ccc(-c2ccccc2)cc1 [4-Bromobiphenyl] | > 90 µM
COC(=O)/C=C(\C)CCC=C(C)C [Methyl geranate] | > 90 µM
CC(Oc1ccc(Cl)cc1Cl)C(=O)O (stereo not drawn) [Dichlorprop] | > 90 µM
N=C(N)c1ccc(/C=C/c2ccc(C(=N)N)cc2O)cc1 [Hydroxystilbamidine bis(methanesulfonate)] | > 50 µM
CC1CNc2c(cccc2S(=O)(=O)N[C@@H](CCCNC(=N)N)C(=O)N2CC[C@@H](C)C[C@@H]2C(=O)O)C1 (stereo partly drawn) [Argatroban] | > 50 µM
CC(=O)Nc1ccc(O)cc1 [Acetaminophen] | > 50 µM
CCC(C(=O)NC(=O)NC(C)=O)c1ccccc1 (stereo not drawn) [Acetylpheneturide] | > 50 µM
CCSC(=O)N1CCCCCC1 [Molinate] | > 90 µM
N#Cc1cc2ccccc2c2ccccc12 [9-Cyanophenanthrene] | > 90 µM
COC(=O)[C@@H]1CC2=CC(=O)CC[C@]2(C)[C@@]23O[C@@H]2C[C@@]2(C)[C@@H](CC[C@@]24CCC(=O)O4)[C@H]13 [Eplerenone] | > 50 µM
CCC(=O)Oc1ccc(/C(CC)=C(\CC)c2ccc(OC(=O)CC)cc2)cc1 [Diethylstilbestrol dipropionate] | > 90 µM
CCCCCC[C@@H](CCC)C(=O)O [(2R)-2-Propyloctanoic acid] | > 50 µM
O=C(O)CCCCCCCCCC(=O)O [Undecanedioic acid] | > 90 µM
CCc1cccc(C)c1N [2-Ethyl-6-methylaniline] | > 90 µM

same assay, conditions: rat, gh3-tre-luc cells, AC50 (uM) modified / 1000, Tox21_110001=Tox21_110445; viability, 1 nM T3 present, 24 h

SMILES | CC50 at 24 h
CC1=C2[C@H]3OC(=O)[C@@H](C)[C@@H]3CC[C@@]2(C)C=CC1=O [alpha-Santonin] | > 50 µM

same assay, conditions: rat, gh3-tre-luc cells, AC50 (uM) modified / 1000, Tox21_110001=Tox21_111223; viability, 1 nM T3 present, 24 h

SMILES | CC50 at 24 h
C[C@]12CC[C@H](OS(=O)(=O)O)CC1=CC[C@@H]1[C@@H]2CC[C@]2(C)C(=O)CC[C@@H]12 [Sodium prasterone sulfate dihydrate] | > 50 µM

same assay, conditions: rat, gh3-tre-luc cells, AC50 (uM) modified / 1000, Tox21_110001=Tox21_111567; viability, 1 nM T3 present, 24 h

SMILES | CC50 at 24 h
CNC1=Nc2ccc(Cl)cc2C(c2ccccc2)=[N+]([O-])C1 [Chlordiazepoxide] | > 50 µM

same assay, conditions: rat, gh3-tre-luc cells, AC50 (uM) modified / 1000, Tox21_110001=Tox21_111804; viability, 1 nM T3 present, 24 h

SMILES | CC50 at 24 h
CC(C)(N)Cc1ccc(Cl)cc1 [Chlorphentermine hydrochloride] | > 50 µM

same assay, conditions: rat, gh3-tre-luc cells, AC50 (uM) modified / 1000, Tox21_110001=Tox21_111849; viability, 1 nM T3 present, 24 h

SMILES | CC50 at 24 h
N#CC1(N2CCCCC2)CCCCC1 [1-Piperidinocyclohexanecarbonitrile] | > 50 µM

same assay, conditions: rat, gh3-tre-luc cells, AC50 (uM) modified / 1000, Tox21_110001=Tox21_111857; viability, 1 nM T3 present, 24 h

SMILES | CC50 at 24 h
C[C@]12CC[C@H]3[C@@H](CCC4=C(Cl)C(=O)CC[C@@]43C)[C@@H]1CC[C@@H]2O [Clostebol] | > 50 µM

same assay, conditions: rat, gh3-tre-luc cells, AC50 (uM) modified / 1000, Tox21_110001=Tox21_112207; viability, 1 nM T3 present, 24 h

SMILES | CC50 at 24 h
C[C@]12CC[C@@H]3c4ccc(OC(=O)N(CCCl)CCCl)cc4CC[C@H]3[C@@H]1CC[C@@H]2O [Estramustine] | > 50 µM

same assay, conditions: rat, gh3-tre-luc cells, AC50 (uM) modified / 1000, Tox21_110001=Tox21_201254; viability, 1 nM T3 present, 24 h

SMILES | CC50 at 24 h
O=P(OCCCl)(OCCCl)OCCCl [Tris(2-chloroethyl) phosphate] | > 90 µM
